Measurements: patent US20250304549A1, “HYDROXYAMIDE DERIVATIVE AND USE THEREOF” (SICHUAN HUIYU PHARMACEUTICAL CO., LTD., priority 2022, published 2025)
Where a name gives a salt, the structure may show the parent alone.

Legend:
pan-HDAC = test: In vitro enzyme inhibition assay - HDAC (HDAC-Glo I/II), pan-HDAC; assay type: biochemical
Experimental: 2. In Vitro Enzyme Inhibition Assay—HDAC
The effect of the compound on the enzymatic activity of pan-HDAC and two isoforms (HDAC1 and HDAC8) was examined using the HDAC-Glo I/II Assay and Screening System assay to assess the level of inhibition of HDAC protease activity and selectivity in each isoform. The proteins and detection reagents were from the HDAC-Glo™ I/II Assay and Screening System (Promega). A 1 mM stock solution of the compound was prepared in DMSO and diluted in a 5-fold gradient to create a series of 8 concentrations, and a specific volume of the highest concentration was diluted 25 times with HDAC Buffer to obtain 4× working solution of the compound. […] The 384-well plate was then read on a multifunctional microplate reader, with the Luminescence channel selected to record Luminescence values (RLU). The inhibition rate was calculated using the following formula: […]
(§1) Note: ‘Negative’ refers to the group without the inhibitor; ‘Blank’ refers to the group without the enzyme.
(§2) The IC50 value was calculated by fitting the inhibition rate by GraphPad Prism software, employing log (inhibitor) vs. response-Variable Slope (four parameters) model.

NCI-H1417 cells = test: In vitro cell inhibition assay - H1417 cell proliferation (CellTiter-Glo); assay type: cell-based; conditions: Homo sapiens, NCI-H1417, H1417 small cell lung cancer cell proliferation
Experimental: 3. In Vitro Cell Inhibition Assay—H1417 Cell Proliferation
The inhibitory effect of the compounds on cell proliferation was assessed by detecting the number of viable cells using the CellTiter-Glo® reagent. […] The compounds were sequentially diluted in a 5-fold concentration gradient with DMSO to obtain 8 different concentrations o. These were diluted with BEGM (containing 10% FBS) cell culture medium to obtain the compound working solution (2×), which was added to the cell supernatant at 100 μL per well. The incubation continued for 7 days at 37° C., 5% CO2. The plate was then removed and equilibrated to room temperature (25° C.) along with the CellTiter-Glo® mixing reagent for 10-30 minutes. After centrifugation, 100 μL of the culture medium was carefully aspirated from each well, and 85 μL of CellTiter-Glo® reagent was added. The cells were thoroughly mixed with the CellTiter-Glo® mixing reagent using a microplate shaker for 2 min. and then incubated at room temperature for 10 min. The 96-well plate was subsequently placed on a multifunctional microplate reader to record the Luminescence values (RLU). • The inhibition rate was calculated using the following formula: […]
(§3) Note: ‘Negative’ refers to the group without inhibitors; ‘Blank’ refers to the group without cells.
(§4) The IC50 value was determined by fitting the inhibition rate by GraphPad Prism software.

LSD1 = LSD1 (Homo sapiens (Human), UniProt O60341); test: In vitro enzyme inhibition assay - LSD1 (HTRF); assay type: biochemical
Experimental: 1. In Vitro Enzyme Inhibition Assay—LSD1
Initially, a master solution of 90 μM test compound (dissolved in DMSO) was prepared and sequentially diluted with DMSO in a 5-fold concentration gradient to yield a total of 9 concentrations of the compound working solution 1 (90×). Subsequently these 9 concentrations of working solution 1 were sequentially diluted by a 30-fold concentration gradient, i.e., 2 μL of working solution 1 was aspirated and added to 58 μL of Buffer, mixed on a vortex mixer with sufficient shaking to yield 9 concentrations of the screening test compound working solution 2 (3×). […] The mixture was incubated at room temperature for 15 minutes. […] Afterward, 2 μL of a termination solution (containing 5.4 mM 2-PCPA) was added to each well, mixed evenly, and incubated for another 15 minutes. Finally 4 μL of a pre-mixed antibody solution of Eu-anti H3K4 (PerkinElmer, TRF0404-D) and allophycocyanin (Prozyme, PJ27S) (1:1) was added to each well, mixed evenly, and incubated for 60 minutes. […] The inhibition rate was calculated through the following formula: […]
as §1, §2

NCI-H69 cells = test: In vitro cell inhibition assay - NCI-H69 cell proliferation (CellTiter-Glo); assay type: cell-based; conditions: Homo sapiens, NCI-H69, H69 small cell lung cancer cell proliferation
Experimental: 4. In Vitro Cell Inhibition Assay—NCI-H69 Cell Proliferation
The inhibitory effect of the compounds on cell proliferation was assessed by detecting the number of viable cells using the CellTiter-Glo® reagent. NCI-H69 cells in the logarithmic growth phase were collected and inoculated into transparent bottom 96-well plates at a density 1×10^3 cells per well with 100 μL medium, and incubated at 37° C., 5% CO2 overnight. The compounds were sequentially diluted in a 5-fold concentration gradient with DMSO to obtain 8 different concentrations These were then diluted with RPMI-640 (containing 20% FBS) cell culture medium to obtain the compounds working solution (2×), which was added to the cell supernatant at 100 μL per well. The incubation continued for 7 days at 37° C., 5% CO2. The plate was then removed and equilibrated to room temperature (25° C.) along with the CellTiter-Glo® mixing reagent for 10-30 minutes. After centrifugation at 1200 rpm for 5 minutes, 120 μL of the culture medium was carefully aspirated from each well, and 60 μL of CellTiter-Glo® reagent was added. The cells were thoroughly mixed with the CellTiter-Glo® mixing reagent using a microplate shaker for 2 min. and then incubated at room temperature for 10 min. The 96-well plate was subsequently placed on a multifunctional microplate reader to record the Luminescence values (RLU).
The inhibition rate was calculated using the following formula: […]
as §3, §4

Compound | IC50 (pan-HDAC) | IC50 (NCI-H1417 cells) | IC50 (LSD1) | IC50 (NCI-H69 cells)
N#Cc1ccc(-c2nc(N3CCC(N)CC3)cc(OCCCCCCC(=O)NO)c2-c2ccc(N)cc2)cc1F [Example 5, 7-(3-(4-Aminophenyl)-6-(4-aminopiperidin-1-yl)-2-(4-cyano-3-fluorophenyl)pyridin-4-yl)oxy)-N-hydroxyheptanamide hydrochloride] | 15 nM | 128 nM |  | 
N#Cc1ccc(-c2nc(N3CCC(N)CC3)cc(OCCCCCCC(=O)NO)c2-c2ccc(F)c(F)c2)cc1F [Example 6, 7-(6-(4-Aminopiperidin-1-yl)-2-(4-cyano-3-fluorophenyl)-3-(3,4-difluorophenyl)pyridin-4-yl)oxy)-N-hydroxyheptanamide hydrochloride] | 134 nM |  | 254 nM | 
Cc1cc(-c2c(OCCCCCCC(=O)NO)cc(N3CCC(N)CC3)nc2-c2ccc(C#N)c(F)c2)ccn1 [Example 10, 7-((6-(4-Aminopiperidin-1-yl)-2-(4-cyano-3-fluorophenyl)-2′-methyl-[3,4′-bipyridin]-4-yl)oxy)-N-hydroxyheptanamide hydrochloride] | 39 nM |  | 75.4 nM | 
COc1ccc(-c2cnc(N3CCC(NCc4ccc(C5=C(C(=O)NO)CCC5)cc4)CC3)c(C#N)c2-c2ccc(C#N)c(F)c2)cc1O [Example 163, 2-(4-(((1-(3-Cyano-4-(4-cyano-3-fluorophenyl)-5-(3-hydroxy-4-methoxyphenyl)pyridin-2-yl)piperidin-4-yl)amino)methyl)phenyl)-N-hydroxycyclopent-1-ene-1-carboxamide formate] |  | 4.97 nM |  | 1400 nM
COc1ccc(-c2cnc(N3CCC(NCc4ccc(C5CC5C(=O)NO)cc4)CC3)c(C#N)c2-c2ccc(C#N)c(F)c2)cc1O (centres unmarked) [Example 167, 2-(4-((1-(3-Cyano-4-(4-cyano-3-fluorophenyl)-5-(3-hydroxy-4-methoxyphenyl)pyridin-2-yl)piperidin-4-yl)amino)methyl) phenyl)-N-hydroxycyclopropane-1-carboxamide formate] |  | 0.39 nM | 0.37 nM | 381 nM

The remaining lines, values ahead:

IC50 (pan-HDAC) | IC50 (NCI-H1417 cells) | IC50 (LSD1) | IC50 (NCI-H69 cells) | Compound
 | 2.33 nM |  | 310 nM | COc1ccc(-c2cnc(N3CCC(NCc4ccc(/C=C/CC(=O)NO)cc4)CC3)c(C#N)c2-c2ccc(C#N)c(F)c2)cc1O [Example 169, (E)-4-(4-(((1-(3-Cyano-4-(4-cyano-3-fluorophenyl)-5-(3-hydroxy-4-methoxyphenyl)pyridin-2-yl)piperidin-4-yl)amino)methyl)phenyl)-N-hydroxybut-3-enamide formate]
 | 1.71 nM | 0.74 nM | 1280 nM | COc1ccc(-c2cnc(N3CCC(NCc4ccc(/C=C(\C)C(=O)NO)cc4)CC3)c(C#N)c2-c2ccc(C#N)c(F)c2)cc1O [Example 172, (E)-3-(4-(((1-(3-Cyano-4-(4-cyano-3-fluorophenyl)-5-(3-hydroxy-4-methoxyphenyl)pyridin-2-yl)piperidin-4-yl)amino)methyl)phenyl)-N-hydroxy-2-methylacrylamide formate]
 | 8.67 nM |  | 4170 nM | COc1ccc(-c2cnc(N3CCC(NCc4ccc(OCC(=O)NO)nc4)CC3)c(C#N)c2-c2ccc(C#N)c(F)c2)cc1O [Example 174, 2-((5-(((1-(3-Cyano-4-(4-cyano-3-fluorophenyl)-5-(3-hydroxy-4-methoxyphenyl)pyridin-2-yl)piperidin-4-yl)amino)methyl)pyridin-2-yl)oxy)-N-hydroxyacetamide formate]
 | 32.1 nM |  | 160 nM | O=C(/C=C/c1ccc(CNC(=O)c2cc(CN[C@@H]3C[C@H]3c3ccc(F)cc3)nc(-c3ccc(-n4cccn4)cc3)n2)cc1)NO [Example 232, 2-(4-(1H-pyrazol-1-yl)phenyl)-6-((((1R,2S)-2-(4-fluorophenyl)cyclopropyl)amino)methyl)-N-(4-((E)-3-(hydroxyamino)-3-oxoprop-1-en-1-yl)benzyl)pyrimidine-4-carboxamide formate]
